Results taken from ChEMBL document CHEMBL1681685, “A novel class of dual mPGES-1/5-LO inhibitors based on the α-naphthyl pirinixic acid scaffold” (Bioorg Med Chem Lett, 2011).
Calls of active or inactive are those of the source. The calls are words filed in the database; no cut-off is given here.

Experiments:
[1] = biological target: T1, Prostaglandin E synthase (Homo sapiens, UniProt O14684); experiment: Inhibition of mPGES-1 expressed in […]-stimulated human A549 cells mitochondrial fraction assessed as conversion of PGH2 to PGE2; type: cell-based
T1 sequence (O14684 whole entry): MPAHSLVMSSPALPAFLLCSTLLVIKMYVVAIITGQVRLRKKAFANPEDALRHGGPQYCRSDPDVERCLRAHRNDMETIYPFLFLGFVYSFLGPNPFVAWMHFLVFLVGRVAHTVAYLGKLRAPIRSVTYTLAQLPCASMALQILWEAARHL

[2] = biological target: T2, Polyunsaturated fatty acid 5-lipoxygenase (Homo sapiens, UniProt P09917); experiment: Inhibition of 5-lipoxygenase in human PMNL
T2 sequence (P09917 whole entry): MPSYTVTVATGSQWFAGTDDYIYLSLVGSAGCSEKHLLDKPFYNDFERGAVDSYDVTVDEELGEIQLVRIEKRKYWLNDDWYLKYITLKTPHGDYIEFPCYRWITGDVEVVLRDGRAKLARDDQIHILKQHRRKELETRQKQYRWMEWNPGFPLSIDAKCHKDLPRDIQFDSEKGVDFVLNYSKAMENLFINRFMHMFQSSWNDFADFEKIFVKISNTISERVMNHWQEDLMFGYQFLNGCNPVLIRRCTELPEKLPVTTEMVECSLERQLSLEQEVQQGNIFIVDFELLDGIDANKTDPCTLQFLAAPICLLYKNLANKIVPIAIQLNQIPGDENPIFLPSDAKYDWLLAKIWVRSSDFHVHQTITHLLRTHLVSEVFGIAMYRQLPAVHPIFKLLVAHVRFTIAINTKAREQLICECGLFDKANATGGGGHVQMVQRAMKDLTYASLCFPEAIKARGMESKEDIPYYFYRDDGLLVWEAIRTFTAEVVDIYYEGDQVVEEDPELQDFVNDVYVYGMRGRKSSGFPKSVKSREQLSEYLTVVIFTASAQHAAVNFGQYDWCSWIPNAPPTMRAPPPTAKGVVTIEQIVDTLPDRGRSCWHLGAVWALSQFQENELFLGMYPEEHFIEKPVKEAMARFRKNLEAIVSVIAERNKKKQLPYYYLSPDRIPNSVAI

[3] = biological target: T3, Polyunsaturated fatty acid 5-lipoxygenase (Homo sapiens) (UniProt P09917); experiment: Inhibition of human recombinant 5-lipoxygenase assessed as remaining activity at 10 uM
T3 sequence (whole entry): T2 sequence (P09917 whole entry)

[4] = biological target: T2, Polyunsaturated fatty acid 5-lipoxygenase; experiment: Inhibition of human recombinant 5-lipoxygenase
[5] = biological target: T4, Prostaglandin E synthase (Homo sapiens) (UniProt O14684); experiment: Inhibition of mPGES-1 expressed in IL-1beta-stimulated human A549 cells mitochondrial fraction assessed as remaining activity at 10 uM
T4 sequence (whole entry): T1 sequence (O14684 whole entry)

[6] = biological target: T3, Polyunsaturated fatty acid 5-lipoxygenase (Homo sapiens); experiment: Inhibition of 5-lipoxygenase in human PMNL assessed as remaining activity at 10 uM
[7] = biological target: T4, Prostaglandin E synthase (Homo sapiens); experiment: Inhibition of mPGES-1 expressed in […]-stimulated human A549 cells mitochondrial fraction assessed as remaining activity at 10 uM; type: cell-based

Compound | IC50 [1] | IC50 [2] | Activity [3] | IC50 [4] | Activity [5] | Activity [6] | Activity [7]
O=C(O)C(Sc1nc(Cl)cc(NCCCc2ccccc2)n1)c1cccc2ccccc12 (centres undefined) | 6100 nM | 1800 nM | 68.9% |  |  |  | 
O=C(O)C(Sc1nc(Cl)cc(Nc2cccc(Cl)c2)n1)c1cccc2ccccc12 (centres undefined) |  | 700 nM |  | 5 µM | 45.5% |  | 
O=C(O)C(Sc1nc(Cl)cc(Nc2ccc(Cc3ccccc3)cc2)n1)c1cccc2ccccc12 (centres undefined) | 1500 nM | 300 nM |  | 2.2 µM |  |  | 
Cc1cccc(Nc2cc(Cl)nc(SCC(=O)O)n2)c1C |  |  | inactive |  | inactive | inactive | 
O=C(Nc1ccc(Nc2cc(Cl)nc(SC(C(=O)O)c3cccc4ccccc34)n2)cc1)c1ccccc1 (centres undefined) |  | 600 nM |  | 5.2 µM | 38.8% |  | 
O=C(O)C(Sc1nc(Cl)cc(Nc2ccc(Oc3ccccc3)cc2)n1)c1cccc2ccccc12 (centres undefined) | 940 nM | 400 nM |  | 3.1 µM |  |  | 
O=C(O)C(Sc1nc(Cl)cc(Nc2ccc(Cl)cc2)n1)c1cccc2ccccc12 (centres undefined) | 5100 nM | 800 nM |  | 8.9 µM |  |  | 
CC(C)c1ccc(Nc2cc(Cl)nc(SC(C(=O)O)c3cccc4ccccc34)n2)cc1 (centres undefined) |  | 260 nM |  | 5.8 µM | 35.8% |  | 
O=C(O)C(Sc1nc(Cl)cc(Nc2ccc(F)cc2)n1)c1cccc2ccccc12 (centres undefined) |  | 3100 nM | 67.3% |  | 49.9% |  | 
O=C(O)C(Sc1nc(Cl)cc(Nc2ccc3ncccc3c2)n1)c1cccc2ccccc12 (centres undefined) |  | 4400 nM | 19% |  | 49.1% |  | 
O=C(O)C(Sc1nc(Cl)cc(Nc2ccc3ccccc3c2)n1)c1cccc2ccccc12 (centres undefined) | 1900 nM | 500 nM |  | 2.9 µM |  |  | 
N#Cc1ccc(-c2ccc(Nc3cc(Cl)nc(SC(C(=O)O)c4cccc5ccccc45)n3)cc2)cc1 (centres undefined) | 1600 nM | 170 nM |  | 2.3 µM |  |  | 
O=C(O)C(Sc1nc(Cl)cc(Nc2ccc3c(c2)Cc2ccccc2-3)n1)c1cccc2ccccc12 (centres undefined) | 1550 nM | 240 nM |  | 1.6 µM |  |  | 
O=C(O)C(Sc1nc(Cl)cc(Nc2cccc(-c3ccccc3)c2)n1)c1cccc2ccccc12 (centres undefined) | 1900 nM | 500 nM |  | 5 µM |  |  | 
O=C(O)C(Sc1nc(Cl)cc(Nc2ccc(C3CCCCC3)cc2)n1)c1cccc2ccccc12 (centres undefined) | 1450 nM | 400 nM |  | 2 µM |  |  | 
CC(C)CNc1cc(Cl)nc(SC(C(=O)O)c2cccc3ccccc23)n1 (centres undefined) |  | 2500 nM | 54.8% |  |  |  | 65.3%
O=C(O)C(Sc1nc(Cl)cc(Nc2ccc3c(c2)CCC3)n1)c1cccc2ccccc12 (centres undefined) |  | 500 nM |  | 4.2 µM | 36.7% |  | 
O=C(O)C(Sc1nc(Cl)cc(Nc2ccc(-c3ccccc3)cc2)n1)c1cccc2ccccc12 (centres undefined) | 940 nM | 100 nM |  | 2.3 µM |  |  | 
Cc1ccc(Nc2cc(Cl)nc(SC(C(=O)O)c3cccc4ccccc34)n2)cc1C (centres undefined) | 5700 nM | 700 nM |  | 8.5 µM |  |  | 
CC(C)(C)c1cc(Nc2cc(Cl)nc(SC(C(=O)O)c3cccc4ccccc34)n2)cc(C(C)(C)C)c1 (centres undefined) | 900 nM | 260 nM |  | 1.9 µM |  |  | 
O=C(O)C(Sc1nc(Cl)cc(NCc2ccc(-c3ccccc3)cc2)n1)c1cccc2ccccc12 (centres undefined) | 880 nM | 700 nM |  | 3 µM |  |  | 
O=C(O)C(Sc1nc(Cl)cc(NCCc2ccccc2)n1)c1cccc2ccccc12 (centres undefined) |  | 2500 nM | 44.2% |  | 42.3% |  | 
CCCCNc1cc(Cl)nc(SC(C(=O)O)c2cccc3ccccc23)n1 (centres undefined) |  | 2400 nM | 70.6% |  | 90.2% |  | 
